Here are results for one compound from patent publication US8053417B2, “Hexosylceramides as adjuvants and their uses in pharmaceutical compositions” (Helmholtz-Zentrum fuer Infektionsforschung GmbH, priority 2005, dated 2011).

Structures are written as SMILES.

The test system of data set [1] is Unstimulated spleen cells. Put plainly: In vitro stimulation of unstimulated spleen cells ([3H]thymidine uptake). The class given is cell-based, mice. The note with it: 4 days. The procedure:
Experimental protocol: Spleens from female BALB/c (H-2d, Harlan Winkelmann) or CD1d−/− (Jackson Laboratories) mice of 6 weeks of age were removed and pooled for analysis of cellular immune responses. Cells were grown in RPMI 1640 supplemented with 10% fetal calf serum, 100 U/ml of penicillin, 50 μg/ml of streptomycin, 5×10^−5 M 2-mercaptoethanol and 1 mM L-glutamine (GIBCO BRL, Karlsruhe, Germany) and maintained at 37° C. in a humidified 5% CO2 atmosphere. Spleen cell suspensions were adjusted to 5×10^6 cells/ml in complete medium, cells were seeded with 100 μl per well in a flat-bottomed 96-well microtiter plate (Nunc) and plates were incubated for 4 days. Unstimulated spleen cells were incubated in the presence of different concentrations of the new adjuvants to analyze the in vitro stimulation capacity of alphaGalCerMPEG. T cell mediated immune responses were investigated at day 38 by measuring the proliferation of cells recovered from spleens after in vitro restimulation with β-Gal. […] Cells were then harvested on paper filters (Filtermat A; Wallac, Freiburg, Germany) by using a cell harvester (Inotech, Wohlen, Switzerland), and the amount of incorporated [3H]thymidine into the DNA of proliferating cells was determined by a β-scintillation counter (Wallac 1450, Micro-Trilux). The results are expressed as the arithmetic mean of [3H]thymidine uptake in cpm.

Data set [2] has as its system in vitro re-stimulated spleen cells. Put plainly: Cytometric Bead Array of cytokines in supernatants of in vitro re-stimulated spleen cells from vaccinated mice. The class given is in vivo. The conditions noted are these: parenteral administration (s.c.) with β-Gal. The procedure: To characterize the type of Th response stimulated following immunization, the content of IFN-γ, IL-2, IL-6, IL-10, MCP-1, and TNFα was measured in supernatants from in vitro re-stimulated spleen cells (FIGS. 8 and 9) by the Cytometric Bead Array. Culture supernatants from proliferating cells were collected on days 2 and 4, and stored at −70° C. Determinations of IFN-γ, TNFα, IL-2, IL-6, IL-10 and MCP-1 were performed by cytometric bead array analysis using the commercial kit from BectonDickinson, according to the manufacturer's instructions. A standard curve was generated for each cytokine by using the corresponding recombinant murine cytokines (Pharmingen). Probes were incubated at room temperature for additional 2 h. The probes were analyzed subsequently by flow cytometry as described in the protocol of BD.

Data set [3] relates to spleens of vaccinated mice. Put plainly: Elispot of beta-Gal specific cytokine secreting cells in spleens of vaccinated mice. Format: in vivo. The procedure:
Experimental protocol: Spleens from vaccinated mice were removed and pooled for analysis of cellular immune responses. The protocol for vaccination was identical to the protocol described in Example 3. Cells were grown in RPMI 1640 supplemented with 10% fetal calf serum, 100 U/ml of penicillin, 50 μg/ml of streptomycin, 5×10^−5 M 2-mercaptoethanol and 1 mM L-glutamine (GIBCO BRL, Karlsruhe, Germany) and maintained at 37° C. in a humidified 5% CO2 atmosphere. Lymph node and spleen cell suspensions were adjusted to 5×10^6 cells/ml in complete medium, cells were seeded with 100 μl per well in a flat-bottomed 96-well microtiter plate (Nunc) and plates were incubated 24 h (IFNgamma) or 48 h (IL-2 and IL-4) in the absence or presence of a beta-Gal peptide (TPHARIGL) encompassing a MHC class I-restricted epitope (for IFNgamma) or the beta-Gal protein (for IL-2 and IL-4), at a concentration of 10 μM. Then, cells were removed and the plates processed according to manufacture's instructions. Colored spots were counted with a C.T.L. Elispot reader and analysed using the ImmunoSpot image analyzer software v3.2.
Thus, to further characterize the T helper responses, the number of beta-Gal specific IFNgamma, IL-2 and IL-4 secreting cells present in spleens of vaccinated mice was determined. In agreement with the above results for IgG isotypes, high numbers of IL-4 secreting cells were detected in mice receiving alphaGalCerMPEG or alphaGalCer (FIG. 10).

In the next data set the test system is YAC-1 cells. Put plainly: 51Cr-release assay with splenocytes of injected mice as effectors and YAC-1 cells as targets for NK cells. Format: in vivo. The procedure:
Experimental protocol: Mice received 10 μg of alphaGalCer or alphaGalCerMPEG by s.c. route, whereas control animals were injected by intraperitoneal route with 100 μg of CpG. After 2 days, they were sacrified and their splenocytes were used as effector cells in a standard 51Cr-release assay using YAC-1 cells as targets for NK cells. Effector cells were washed and their concentration was adjusted to 1×10^6/ml. In parallel, target cells were incubated in RPMKI medium without FCS containing 100 μCi of 51Cr for 2 h. Then, target cells were extensively washed with RPMI medium containing FCS and co-incubated in triplicates with effector cells at different effector:target (E:T) ratios. After 4 h, cells were centrifuged and the radioactivity present in supernatants was measured by scintillation counting. Maximal lysis was determined after lysis with 5% […], whereas spontaneous lysis was measured in supernatants of untreated target cells. Results are expressed as percentage of lysed cells, accordingly to the formula: (sample−spontaneous lysis)/(maximal lysis−spontaneous lysis)×100.

The subject of the next data set is C57BI6 mice. Description: VITAL assay (in vivo CTL), lysis of OVA peptide-pulsed target cells in immunized mice. The note with it: 10 μg adjuvant with 50 μg Ovalbumin. The procedure:
Experimental protocol: Six to eight weeks-old female C57BI6 mice were purchased from Harlan Winkelmann GmbH (Borchen, Germany) and treated in accordance with local and European Community guidelines. Groups of 5 mice each were immunized on day 1, 14 and 28 with 50 μg Ovalbumin (Sigma, Germany) alone or with 10 μg alphaGalCerMPEG or alphaGalCer. For intranasal immunization, 10 μl were applied to each naris, whereas for the s.c. injection Ovalbumin (ova) with or without alphaGalCerMPEG or alphaGalCer was resuspended in a volume of 50 μl PBS per animal. The determination of the in vivo lymphocyte-mediated cytotoxicity followed a protocol described by Hermans et. Al. (Herman, I. F., et. Al., 2004, The vital assay, J Immunol Methods, 285, 25-40). A suspension of splenocytes from naïve mice was depleted of red cells and split into two equal portions. The target cell preparation was labelled with a high concentration (1 μM) of CFSE (Molecular Probes) and pulsed for 1 h at 37° C. with the dominant OVA peptide (aa 257-264) at a concentration of 15 μg/ml. […] Cells from spleens were analyzed by flow cytometry after 16 h and 40 h, with the FACScalibur using the software BD cell Quest Pro. […] Cytotoxic activity was assessed with any variability in the proportion of cells in the different target populations assessed in a non-immunized control group for CTL assays.

The conditions of data set [4]: background statement; cited from earlier work.

Turning to `CCCCCCCCCCCCCCCCCCCCCCCCCC(=O)N[C@@H](CO[C@H]1O[C@H](CO)[C@H](O)[C@H](O)[C@H]1O)[C@H](O)[C@H](O)CCCCCCCCCCCCCC` [alphaGalCer, alpha-Galactosylceramide], the “stimulation of unstimulated spleen cells with different concentrations” value in data set [1] was “no dose dependent increase”. In data set [2], the “secretion of IFNgamma” value is “significant enhanced secretion”, the “secretion of IL-10” value is reported as “significant enhanced secretion” and the “secretion of TNFalpha” value was “significant enhanced secretion”. Besides, in data set [3] (spleens of vaccinated mice, beta-Gal protein 10 μM, 48 h), the “number of IL-4 secreting cells” value is recorded as “high numbers”. For the same compound, the “number of IFNgamma secreting cells” value in data set [3] (stimulation with MHC class I restricted peptide, 24 h) is listed as “increased to a significant minor extent”. Also, the “number of IL-2 secreting cells” value in data set [3] (stimulation with β-Gal protein, 48 h) is recorded as “increased to a significant minor extent”. Also, in the data set with YAC-1 cells (effector:target ratio 50:1, splenocytes 2 days after injection), the “lysis of YAC-1 cells” value was 34%. Moreover, in the data set with YAC-1 cells (effector:target ratio 100:1, splenocytes 2 days after injection), the “lysis of YAC-1 cells” value came to 37%. The “fold increase of the cytotoxic potential of splenocytes with respect to OVA antigen alone (5%)” value in the data set with C57BI6 mice is 6.4 fold. The “specific lysis of peptide-coated target cells” value in the data set on C57BI6 mice (day 1, 14 and 28) is recorded as 30%. For the same compound, the “solubility in aqueous solvents” value in data set [4] is recorded as “poor”.
